Results as given in US4352803A, “Novel naphthyridine derivatives, intermediates thereof, processes for preparation thereof, and use thereof” (Dainippon Pharmaceutical Co., Ltd., priority 1978, dated 1982).
Values after ≈ are worked out from the molar mass of the structure shown.

Tests used:
[1] = in vivo; conditions: mouse, in vivo, po
Method: The number of dead mice was counted after 7 days, and the value of median lethal dose (LD50, mg/kg) was calculated in accordance with the Behrens-Kaerber method.

[2] = tested on: Staphylococcus aureus No. 50774; experiment: In vitro antibacterial activity (MIC), Staphylococcus aureus No. 50774; type: cell-based; conditions: Staphylococcus aureus No. 50774; read-out: minimum inhibitory concentration (MIC)
Text: (§1) (MIC) (μg/ml) Method; Chemotherapy, 22(6), 1126 (1974)

[3] = tested on: Gram-positive and Gram-negative bacteria; experiment: in vivo therapeutic efficacy against systemic infections in mice (overall); design: species or system mice (ddY)
[4] = tested on: Shigella flexneri 2a; experiment: In vitro antibacterial activity (MIC), Shigella flexneri 2a; type: cell-based; conditions: read-out: minimum inhibitory concentration (MIC)
Text: as §1

[5] = tested on: Streptococcus faecalis P-2473; experiment: In vitro antibacterial activity (MIC), Streptococcus faecalis P-2473; type: cell-based; conditions: Enterococcus faecalis, P2473; Streptococcus faecalis P-2473; read-out: minimum inhibitory concentration (MIC)
Text: as §1

[6] = tested on: Streptococcus pyogenes 65A; experiment: In vitro antibacterial activity (MIC), Streptococcus pyogenes 65A; type: cell-based; conditions: Streptococcus pyogenes 65A; read-out: minimum inhibitory concentration (MIC)
Text: as §1

[7] = tested on: Pseudomonas aeruginosa Tsuchijima; experiment: In vitro antibacterial activity (MIC), Pseudomonas aeruginosa Tsuchijima; type: cell-based; conditions: Pseudomonas aeruginosa, read-out: minimum inhibitory concentration (MIC)
Text: as §1

[8] = tested on: Gram-positive bacteria and Gram-negative bacteria; experiment: In vitro antibacterial activity against 19 strains of bacteria (overall); type: cell-based; conditions: comparisons are with compounds of the invention
Text: as §1

[9] = tested on: Pseudomonas aeruginosa No. 12; experiment: in vivo efficacy on the ascending kidney infection in mice; design: species or system mice (ddY-S)
Method: Female mice (ddY-S) weighing 22 to 30 g were anesthetized by intravenous injection of sodium pentobarbital at a dose of 50 mg/kg. Through a small suprapubic incision, the urinary bladder was exposed and then infected by injecting 0.1 ml of a 1:10,000 dilution of Pseudomonas aeruginosa No. 12 cultured for 20 hours in trypto-soy broth, using 0.25 ml syringe with 0.25 mm needle. The mice were restrained from drinking water for a period from 1 day before to 1 day after the infection and treated twice a day for 3 days starting on the day of infection. On the 5th day after infection, the kidneys were harvested for the detection of the bacteria, transversely bisected and stamped on King A Agar, which were incubated at 37° C. overnight. No bacterial finding in the kidneys was regarded as protected from the ascending kindey infection. ED50 values were calculated by probit analysis.

[10] = tested on: Pseudomonas aeruginosa No. 12; experiment: In vitro antibacterial activity (MIC), Pseudomonas aeruginosa No. 12; type: cell-based; conditions: Pseudomonas aeruginosa No. 12; read-out: minimum inhibitory concentration (MIC)
Text: as §1

[11] = tested on: Salmonella typhimurium 8-9; experiment: In vitro antibacterial activity (MIC), Salmonella typhimurium 8-9; type: cell-based; conditions: Salmonella enterica; Salmonella typhimurium 8-9; read-out: minimum inhibitory concentration (MIC)
Text: as §1

[12] = tested on: Proteus morganii Kono; experiment: In vitro antibacterial activity (MIC), Proteus morganii Kono; type: cell-based; conditions: Morganella morganii; Proteus morganii Kono; read-out: minimum inhibitory concentration (MIC)
Text: as §1

[13] = Plasma level in dogs; type: in vivo, Beagle dogs
Method: Two male Beagle dogs weighing 12 kg each were orally given a capsule containing one of compounds 1 and 2 at a dose of 25 mg/kg with 200 ml of milk respectively. Blood samples were taken by venipuncture from the two dogs at each 0.5, 1, 2, 3, 6, 8 and 10 hours after administration, and centrifuged individually to separate the plasma.
Drug levels were determined by the thin-layer cup-plate method using Escherichia coli Kp as an indicator organism.

[14] = tested on: Staphylococcus aureus No. 50774; experiment: in vivo efficacy against systemic infection in mice, Staphylococcus aureus No. 50774; conditions: NO.50774, in Mus musculus, po, 336 h
Method: Male mice (ddY) weighing about 20 g
Intravenous infection with (about
5 × 10^8 cells/mouse) of a bacterial
(§2) Twice, about 5 minutes and 6 hours after infection.

[15] = tested on: Shigella flexneri 4a P-330; experiment: In vitro antibacterial activity (MIC), Shigella flexneri 4a P-330; type: cell-based; conditions: 4AP330, read-out: minimum inhibitory concentration (MIC)
Text: as §1

[16] = tested on: Enterobacter cloacae P-2540; experiment: In vitro antibacterial activity (MIC), Enterobacter cloacae P-2540; type: cell-based; conditions: P2540; Enterobacter cloacae P-2540; read-out: minimum inhibitory concentration (MIC)
Text: as §1

[17] = tested on: Escherichia coli P-140a; experiment: In vitro antibacterial activity (MIC), Escherichia coli P-140a; type: cell-based; conditions: P140A; Escherichia coli P-140a; read-out: minimum inhibitory concentration (MIC)
Text: as §1

[18] = tested on: Proteus mirabilis P-2381; experiment: In vitro antibacterial activity (MIC), Proteus mirabilis P-2381; type: cell-based; conditions: Proteus mirabilis, P2381, read-out: minimum inhibitory concentration (MIC)
Text: as §1

[19] = tested on: Salmonella enteritidis No. 1891; experiment: In vitro antibacterial activity (MIC), Salmonella enteritidis No. 1891; type: cell-based; conditions: Salmonella enterica; Salmonella enteritidis No. 1891; read-out: minimum inhibitory concentration (MIC)
Text: as §1

[20] = tested on: Escherichia coli P-5101; experiment: In vitro antibacterial activity (MIC), Escherichia coli P-5101; type: cell-based; conditions: P5101; Escherichia coli P-5101; read-out: minimum inhibitory concentration (MIC)
Text: as §1

[21] = tested on: Staphylococcus aureus 209P JC-1; experiment: In vitro antibacterial activity (MIC), Staphylococcus aureus 209P JC-1; type: cell-based; conditions: Staphylococcus aureus 209P JC-1; read-out: minimum inhibitory concentration (MIC)
Text: as §1

[22] = tested on: Serratia marcescens IFC 3736; experiment: In vitro antibacterial activity (MIC), Serratia marcescens IFC 3736; type: cell-based; conditions: Serratia marcescens, IFC3736, read-out: minimum inhibitory concentration (MIC)
Text: as §1

[23] = tested on: Escherichia coli NIHJ JC-2; experiment: In vitro antibacterial activity (MIC), Escherichia coli NIHJ JC-2; type: cell-based; conditions: NIHJJC2; Escherichia coli NIHJ JC-2; read-out: minimum inhibitory concentration (MIC)
Text: as §1

[24] = tested on: Corynebacterium pyogenes C-21; experiment: In vitro antibacterial activity (MIC), Corynebacterium pyogenes C-21; type: cell-based; conditions: Rhodococcus (subgen. Prescottella) equi, C21; Corynebacterium pyogenes C-21; read-out: minimum inhibitory concentration (MIC)
Text: as §1

[25] = tested on: Klebsiella pneumoniae No. 13; experiment: In vitro antibacterial activity (MIC), Klebsiella pneumoniae No. 13; type: cell-based; conditions: Klebsiella pneumoniae No. 13; read-out: minimum inhibitory concentration (MIC)
Text: as §1

[26] = tested on: Pseudomonas aeruginosa No. 12; experiment: in vivo efficacy against systemic infection in mice, Pseudomonas aeruginosa No. 12; conditions: NO.12, in Mus musculus, po, 168 h
Method: Male mice (ddY) weighing about 20 g
(3) Pseudomonas aeruginosa No. 12;
(about 5 × 10^3 cells/mouse) of a bacterial
(§3) suspension in trypto-soy broth with 4% mucin.
as §2
The numerals in the table show ED50 (mg/kg). ED50 values were

[27] = Urinary excretion in dogs; type: in vivo, Beagle dogs
[28] = tested on: Escherichia coli P-5101; experiment: in vivo efficacy against systemic infection in mice, Escherichia coli P-5101; conditions: P5101, in Mus musculus, po, 168 h
Method: Male mice (ddY) weighing about 20 g
Intraperitoneal infection with (about
9 × 10^6 cells/mouse) of a bacterial
as §3, §2

C=Cn1cc(C(=O)O)c(=O)c2cc(F)c(N3CCNCC3)nc21 [Compound 2, 6-Fluoro-1,4-dihydro-4-oxo-7-(1-piperazinyl)-1-vinyl-1,8-naphthyridine-3-carboxylic acid]
LD50 at 168 h [1]: > 4000 mg/kg | MIC [2]: 3.13 µg/mL (≈ 9.83 µM) | therapeutic effect in vivo against Gram-negative bacteria, relative to compound D ([3]; Gram-negative including Pseudomonas aeruginosa): clearly better | therapeutic effect against Gram-negative bacteria, relative to compound 1 or 1' ([3]; systemic infection, Gram-negative): superior | therapeutic effect against Gram-negative bacteria, relative to compounds A, C, E, F, G, H and J ([3]; systemic infection, Gram-negative, especially Pseudomonas aeruginosa): better therapeutic effects | therapeutic effect against Gram-positive bacteria, relative to compound 1 or 1' ([3]; systemic infection, Gram-positive): inferior | MIC [4]: 0.1 µg/mL (≈ 0.314 µM) | MIC [5]: 25 µg/mL (≈ 78.5 µM) | MIC [6]: 12.5 µg/mL (≈ 39.3 µM) | MIC [7]: 0.2 µg/mL (≈ 0.628 µM) | antibacterial activity (in words) [8]: very high antibacterial activities | ED50 ([9]; 120 h, ascending kidney infection with Pseudomonas aeruginosa No. 12, po, mice): 0.56 mg/kg | therapeutic effect against ascending kidney infection (in words) ([9]; compounds 1 and 2 (1, 1' and 2 elsewhere in the source) compared with compound D): clearly better than that of compound D | MIC [10]: 0.39 µg/mL (≈ 1.23 µM) | MIC [11]: 0.05 µg/mL (≈ 0.157 µM) | MIC [12]: 0.1 µg/mL (≈ 0.314 µM) | concentration at 2 h ([13]; dog, plasma, 2 hr after oral 25 mg/kg): 1500 ng/mL | concentration at 3 h ([13]; dog, plasma, 3 hr after oral 25 mg/kg): 2800 ng/mL | concentration at 6 h ([13]; dog, plasma, 6 hr after oral 25 mg/kg): 5500 ng/mL | concentration at 8 h ([13]; dog, plasma, 8 hr after oral 25 mg/kg): 5200 ng/mL | concentration at 10 h ([13]; dog, plasma, 10 hr after oral 25 mg/kg): 4400 ng/mL | absorption in the body by oral administration (in words) ([13]; oral 25 mg/kg): well absorbed | period after administration with plasma level higher than the MIC values against most bacteria ([13]; oral 25 mg/kg): at least 2 hours to even more than 10 hours | ED50 [14]: 33.4 mg/kg | MIC [15]: 0.2 µg/mL (≈ 0.628 µM) | MIC [16]: 1 µg/mL (≈ 3.14 µM) | MIC [17]: 0.1 µg/mL (≈ 0.314 µM) | MIC [18]: 0.2 µg/mL (≈ 0.628 µM) | MIC [19]: 0.05 µg/mL (≈ 0.157 µM) | MIC [20]: 0.05 µg/mL (≈ 0.157 µM) | MIC [21]: 1.56 µg/mL (≈ 4.9 µM) | MIC [22]: 0.2 µg/mL (≈ 0.628 µM) | MIC [23]: 0.1 µg/mL (≈ 0.314 µM) | MIC [24]: 1.56 µg/mL (≈ 4.9 µM) | MIC [25]: 0.1 µg/mL (≈ 0.314 µM) | ED50 [26]: 2.4 mg/kg | urinary excretion (in words) ([27]; 24 hours): fairly good | concentration at 24 h ([27]; dog, urine, po, 25 mg/kg, urine pooled over 24 hours, oral 25 mg/kg): 326 µg/mL | dose excreted at 24 h ([27]; dog, urine, po, 25 mg/kg, urine pooled over 24 hours, oral 25 mg/kg, read-out: urinary recovery): 29.4% | ED50 [28]: 1.3 mg/kg
